In US20240374626A1, “METHODS OF ENHANCING MILK PRODUCTION IN LACTATING MAMMALIAN SUBJECTS” (priority 2023, published 2024):

System: CK8+ luminal cells
Assay: Contralateral intraductal injection: FACS DNA content analysis of CK8+ luminal cells
Type: in vivo, mouse
Experimental: Nulliparous analysis was performed using adult (10-12-week-old) female mice. For timed pregnancies and lactation analysis, CD-1 pregnant adult females were obtained from Charles Rivers. Embryos were examined at the time of mammary gland harvesting to confirm pregnancy state. […] Plugged mice were considered to be PD0.5 on the day of the observed plug. All females used in this study were age matched. Mice were anesthetized with isoflurane (VetOne, 501017) Prior to intraductal injections, hair was removed from around the nipples using Nair hair remover. Injections into the duct of the nipple were performed with 33 G needles (Hamilton, 7803-05) and a volume of 40 μl per gland. Right inguinal, abdominal and thoracic glands were injected with doxorubicin (1.5 μg per gland, Cayman Chemical, 15007), nucleosides (40 μl per gland, Millipore-Sigma, ES-008-D) or Mk-1775 (50 μg per gland, Cayman Chemical, 21266), and left glands were injected with PBS or DMSO (Thermo Scientific, BP231) diluted in PBS. Mechanically dissociated inguinal, abdominal, and thoracic mammary fat pads were prepared into cell suspension for flow cytometry or fluorescence-activated cell sorting (FACS). The lymph node was removed from abdominal glands. Glands were chopped using a mechanical tissue chopper and digested for 1 h at 37° C. in digestion media [RPM1 containing 1% FBS, collagenase IA (Sigma, C9891), hyaluronidase (Sigma, H3506) and DNAse I (Worthington, LS002007)]. […] Tissue was further digested using pre-warmed 0.25% Trypsin-EDTA (Thermo Fisher, 25200056), washed, and digested with 5 mg/ml of pre-warmed dispase II (Roche, 4942078001). Red blood cells were lysed using Ammonium Chloride Solution (Stem Cell Technologies, 07850). Cells were washed, resuspended and filter through a 70 μm cell strainer (Falcon, 08-771-2) and processed for downstream applications. For DNA content analysis of the mammary gland CK8^+ epithelial population, mammary gland cells suspension was obtained as described above. Cells were fixed in ice-cold 70% EtOH at a final concentration of 10^6 cells/ml. During fixation, cells were vigorously vortexed for 1 min to avoid the formation of cell aggregates. Cells were washed twice with washing buffer [1×PBS containing 5% FBS and 0.5% tween 20 (Fisher Chemical, BP337500)] and centrifuged at 2,000 rpm for 5 min at 4° C. Cell pellet was incubated for 1 h at room temperature with anti-CK8 (Developmental Studies Hybridoma Lab, TROMA-1), anti-GFP (Thermo Fisher, A01704) or corresponding rat (Thermo-Fisher, 10700) or rabbit (Thermo-Fisher, 10500C) IgG isotype controls. Cells were washed twice and incubated for 1 h at room temperature in darkness with FITC anti-Rat (Thermo Fisher, A24544) or FITC anti-Rabbit (Thermo Fisher, A16030) and APC anti-Rat (Jackson ImmunoResearch, 712-136-153). Cells were washed twice and resuspended in propidium iodide solution [1×PBS containing 25 μg/ml of propidium iodide (Thermo Fisher, P3566) and 100 μg/ml of RNAse (Thermo Fisher, 12091021)]. For DNA content analysis on HC11, cells were washed with 1×DPBS (GIBCO, 14190-250) and harvested using 0.05% Trypsin-EDTA (GIBCO, 25300-062). Cell suspension was washed with 1×DPBS and centrifuged at 1,000 rpm for 5 min at 4° C. Cell pellet was fixed in ice-cold 70% EtOH and then vortexed vigorously to avoid cell aggregates. After fixation, cells were washed with washing buffer [1×PBS (GIBCO, 14190136) supplemented with 5% FBS] and centrifuged at 2,000 rpm for 5 min at 4° C. The pellet was resuspended in propidium iodide solution. Cell suspensions were filtered through a 70 μm cell strainer (Falcon, 08-771-2) and analyzed using a BD LSRII cytometer or a BD FACS Aria II Cell Sorter. Populations were analyzed using FlowJo.

[1] = doxorubicin IDI at PD12.5 vs contralateral DMSO, MGs at PD17.5
[2] = Mk-1775 IDI at PD16.5 vs contralateral DMSO, by LD5

Structure (SMILES)	decrease in 2C luminal population (in the overall population) [1] [%]	increase in 4C luminal population (in the overall population) [1] [%]	increase in >4C luminal population (in the overall population) [1] [%]	decrease in 4C CK8+ population (in the overall population) (Mk-1775 IDI (50 μg per gland) at PD16.5 vs contralateral DMSO, at LD2) [%]	increase in 2C CK8+ population (in the overall population) (Mk-1775 IDI at PD16.5 vs contralateral DMSO, LD2) [%]	increase in 2C CK8+ population (in the overall population) (Mk-1775 IDI at PD16.5 vs contralateral DMSO, LD5) [%]	decrease in 4C CK8+ population (in the overall population) [2] [%]	decrease in >4C CK8+ population (in the overall population) [2] [%]
COc1cccc2c1C(=O)c1c(O)c3c(c(O)c1C2=O)C[C@@](O)(C(=O)CO)C[C@@H]3O[C@H]1C[C@H](N)[C@H](O)[C@H](C)O1 [doxorubicin]	5.23	14.86	47.1					
C=CCn1c(=O)c2cnc(Nc3ccc(N4CCN(C)CC4)cc3)nc2n1-c1cccc(C(C)(C)O)n1 [Mk-1775]				19.4	7.7	12.4	3.2	16.31
